Here are results for one compound from patent US20240285594A1, “COMPOSITIONS AND METHODS FOR TREATING PAIN IN ANIMALS” (North Carolina State University, priority 2023, published 2024).

A short description of series [1]: UPAPS behavioral pain scoring and rescue analgesia after castration (Part II). Format: in vivo, piglets. Particulars: -1 h, 0 h and +3 h relative to castration; compared to C (saline); listed as FM. As for the experimental part:
Behavior scoring was obtained in real-time by observing each piglet for 4-min continuously using Unesp-Botucatu pig acute pain scale (UPAPS). Each piglet was scored by one trained observer at the following timepoints: 1 h before castration (−1 h), immediately post-castration (0 h), and 3 h post-castration (+3 h, FIG. 3). The 4-min sampling time was obtained from the methodology previously validated. Treatments were masked, randomized, and applied to each piglet by a senior researcher. The Unesp-Botucatu UPAPS scale evaluates five behavioral items, with each item divided into four descriptive levels. A numerical score was designated from “0” to “3”, with a “0” representing normal behavior (free of pain) and “3” corresponding to pronounced behavioral deviation (severe pain). Therefore, for each timepoint, piglets may receive a score ranging from 0 (min) to 15 (max; Table 3). Total pain scores were then calculated for each piglet per timepoint. […] This is most referred to rescue analgesia in the literature; and was conducted for each behavioral assessment. Total counts were calculated for piglets identified as requiring or not requiring rescue analgesia by treatment and timepoint. […]

Series [2] can be described thus: Plasma and interstitial fluid concentrations after intravenous or intranasal flunixin meglumine in cattle. The class given is in vivo. The method, then:
FIG. 10: Plasma concentration versus time curve for individual cattle (n=4) following a single intravenous dose of flunixin meglumine at 2.2 mg/kg. Samples were simultaneously collected from the opposite jugular vein (via pre-placed catheter) and a pre-placed portal vein catheter. Some variability is observed between sampling sites (jugular vs. portal vein) but overall concentrations and trend are similar over time.
FIG. 11: Plasma concentration versus time curve for individual cattle (n=4) following a single intranasal dose of flunixin meglumine at 2.2 mg/kg. Samples were simultaneously collected from a jugular vein catheter and a pre-placed portal vein catheter. Overall, plasma concentrations are lower following intranasal administration, and the jugular sampling site overestimates systemic concentrations especially following the first 1 hour after administration.
FIG. 12: Interstitial fluid concentration versus time curve for individual cattle (n=4) following a single intranasal (n=2) or intravenous (n=2) dose of flunixin meglumine at 2.2 mg/kg. Samples were collected using an in vivo ultrafiltration collection device and represent tissue unbound concentrations of flunixin. There is systemic absorption following both intravenous and intranasal routes of administration, with tissue concentrations of flunixin detected for at least 24 hours following a single dose.

Series [3] can be described thus: Pilot pharmacokinetic study of intranasal flunixin, three catheter sites. Format: in vivo. Particulars: female, Yorkshire cross, plasma, inhaled or intranasal, 3.0 mg/kg IN, one grower pig; for AUC / Cmax: pig, 3 mg/kg; for AUC: read-out: area under the curve (AUC) (converted); for Cmax: read-out: peak concentration (Cmax). From the text: A pilot study in one animal was initially performed to compare jugular venous drug concentrations to those of other sites (femoral artery and auricular artery), as there was concern that drainage of the nasal sinus would produce higher concentrations of flunixin in the blood collected from the jugular vein.
The pilot study involved one female Yorkshire cross grower pig sourced from a production farm weighing 25.3 kg. The pig was sedated with IM Telazol®, ketamine, and xylazine (TKX). The Telazol® was reconstituted with ketamine (250 mg; 2.5 mL) and xylazine (250 mg; 2.5 mL; Dechra Veterinary Products, Overland Park, KS, USA) and administered IM at a dose of 0.03 mL/kg (1.5 mg/kg) for each medication before being intubated and maintained on isoflurane anesthesia. A femoral arterial catheter, jugular venous catheter, and auricular arterial catheter were placed using sterile technique. […] A higher dose than the label dose was chosen to ensure that the drug would be detectable since this study's purpose was to determine an appropriate catheter site. Using an intranasal mucosal atomization device (MAD) (Teleflex, Morrisville, NC, USA) with 1 mL luer lock syringe, each nostril was infused with 0.75 mL (37.5 mg) of flunixin to administer a total of 1.5 mL (75 mg). Plasma samples were collected from each catheter site at pre-treatment (blank), 0.08, 0.25, 0.5, 0.85, 1, 1.5, 2, 2.5, and 3 hours post-treatment and analyzed using ultra performance liquid chromatography and tandem mass spectrometry (UPLC-MS/MS) to determine flunixin concentrations. A non-compartmental pharmacokinetic analysis was then performed.

Entries after “also recorded” stand apart in the source; their conditions may differ. Read-outs that look alike come from different tables or passages of the source.

On to `Cc1c(Nc2ncccc2C(=O)O)cccc1C(F)(F)F` [flunixin meglumine], for which the “total UPAPS scores” value in series [1] is recorded as “did not decrease; also recorded: behavioral differences were not noted”. Moreover, the plasma concentrations entry in series [2] (cattle (n=4), single intranasal dose 2.2 mg/kg, compared with intravenous) is on record as “lower”. The “time tissue (interstitial fluid, unbound) concentrations were detected” value in series [2] (cattle, single intranasal or intravenous dose 2.2 mg/kg) was “at least 24 hours”. The AUC is 12800 ng·h/mL in series [3] (auricular artery), 12300 ng·h/mL in series [3] (femoral artery) and 12800 ng·h/mL in series [3] (jugular vein). Further, the Cmax turned out to be 6000 ng/mL in series [3] (auricular artery), 5170 ng/mL in series [3] (femoral artery) and 6820 ng/mL in series [3] (jugular vein). The Tmax in series [3] (all catheter sites, read-out: time to peak concentration (Tmax)) was found to be 15 min.

As a reminder, the AUC is concentration integrated over time.
